Results published in PubChem BioAssay (NCI).
Values joined by “and” are separate entries in the source; they are usually repeats but may differ in a detail not shown here. Equal entries are not always repeated.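 Five concentrations, 48 hours, 96-well plates. GI50 marks 50% less growth. TGI marks complete inhibition of growth.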

Columns and labels:
Assay in all cases: NCI anticancer screen, dose series, 48 h
BT-549 breast = test system: BT-549 breast
HCC-2998 colon = test system: HCC-2998 colon
HL-60(TB) leukemia = test system: HL-60(TB) leukemia
HOP-92 NSCLC = test system: HOP-92 NSCLC
MOLT-4 leukemia = test system: MOLT-4 leukemia
NCI-H460 lung = test system: NCI-H460 lung
NCI-H522 lung = test system: NCI-H522 lung
OVCAR-4 ovarian = test system: OVCAR-4 ovarian
RXF 393 renal = test system: RXF 393 renal
SF-268 CNS = test system: SF-268 CNS
SF-539 CNS = test system: SF-539 CNS
SK-MEL-2 melanoma = test system: SK-MEL-2 melanoma
SK-MEL-28 melanoma = test system: SK-MEL-28 melanoma
SNB-19 CNS = test system: SNB-19 CNS
T-47D breast = test system: T-47D breast
UACC-62 melanoma = test system: UACC-62 melanoma
UO-31 renal = test system: UO-31 renal

Structure (SMILES) | TGI (BT-549 breast) [µM] | TGI (HCC-2998 colon) | TGI (HL-60(TB) leukemia) | TGI (HOP-92 NSCLC) | TGI (MOLT-4 leukemia) | TGI (NCI-H460 lung) | TGI (NCI-H522 lung) | TGI (OVCAR-4 ovarian) | TGI (RXF 393 renal) | TGI (SF-268 CNS) | TGI (SF-539 CNS) | TGI (SK-MEL-2 melanoma) | TGI (SK-MEL-28 melanoma) | TGI (SNB-19 CNS) | TGI (T-47D breast) | TGI (UACC-62 melanoma) | TGI (UO-31 renal) | GI50 (HL-60(TB) leukemia) | GI50 (MOLT-4 leukemia)
CCc1cc2c(c3c1CCCC3)CC1(Cc3ccc(C(=O)OC)cc3C1)C2 (stereo not drawn) | > 100 | > 100 µM | 51.6 µM | > 100 µM | > 100 µM | > 100 µM | > 100 µM | > 100 µM | > 100 µM | > 100 µM | > 100 µM | > 100 µM | > 100 µM | > 100 µM | > 100 µM | > 100 µM | > 100 µM |  | 
COc1cc(C2c3cc4c(cc3OC(NCCc3ccccc3)C2C)OCO4)cc(OC)c1OC (stereo not drawn) | 22.7 | 0.85 µM | 0.547 µM | 63.3 µM | > 37.7 µM | > 52.1 µM | 0.779 µM | > 47.7 µM |  | > 39.3 µM | 1.23 µM | > 42.1 µM | > 100 µM | > 100 µM | 66.8 µM | 35.3 µM | 22.8 µM |  | 
COc1cc(/C=N/c2ccccn2)cc(OC)c1OC | > 100 | > 100 µM | > 100 µM | > 100 µM | > 100 µM | > 100 µM | > 100 µM | > 100 µM | > 100 µM | > 100 µM | > 100 µM | > 100 µM | > 100 µM | > 100 µM | > 100 µM | > 100 µM | > 100 µM |  | 
Nc1ncnc2c1ncn2-c1ccc([N+](=O)[O-])cn1 | > 100 | > 100 µM | > 100 µM | > 100 µM |  | > 100 µM |  | > 100 µM | > 100 µM | > 100 µM | > 100 µM | > 100 µM | > 100 µM | > 100 µM | > 100 µM | > 100 µM | > 100 µM |  | 
CC(C)[Si]1(C(C)C)OCC2OC(n3c(C(=O)c4ccccc4)cc(=O)[nH]c3=O)CC2O[Si](C(C)C)(C(C)C)O1 (stereo not drawn) | 16.5 | 3.41 µM | > 28.6 µM | 7.14 µM | 4.76 µM | 15.9 µM | 3.55 µM | 8.36 µM | 7.37 µM | 8.26 µM | 8.6 µM | 10.6 µM | 15 µM | 22.4 µM | 16 µM | 7.62 µM | 6.98 µM |  | 
O=[N+]([O-])c1ccc(C2=NOC(c3ccc(Cl)cc3)N2C23CC4CC(CC(C4)C2)C3)cc1 (stereo not drawn) | > 100 | > 100 µM | > 100 µM | > 100 µM | > 100 µM | > 100 µM | > 100 µM | > 100 µM | 9.89 µM | > 100 µM | > 100 µM | > 100 µM | > 100 µM | > 100 µM | > 100 µM | > 100 µM | > 100 µM |  | 
COC1CC(C)([N+](=O)[O-])C(O)C(C)O1 (stereo not drawn) | > 100 | > 100 µM | > 100 µM | > 100 µM | > 100 µM | > 100 µM | > 100 µM | > 100 µM | > 100 µM | > 100 µM | > 100 µM | > 100 µM | > 100 µM | > 100 µM | > 100 µM | > 100 µM | > 100 µM |  | 
CCOC(=O)c1sc2c(c1O)c(=O)n(-c1ccccc1)c(=S)n2-c1ccccc1 | > 100 | > 100 µM | > 100 µM | > 100 µM |  | > 100 µM | > 100 µM | > 100 µM | > 100 µM | > 100 µM |  | > 100 µM | > 100 µM | > 100 µM | > 100 µM | > 100 µM | > 100 µM |  | 
COc1cc(C2c3[nH]c4ccccc4c3[C@@H](Nc3ccc(C#N)cc3)[C@H]3COC(=O)N23)cc(OC)c1O (stereo partly drawn) | 0.796 | 0.704 µM | 0.165 µM | > 4.61 µM | 0.0634 µM | 0.342 µM | 0.547 µM | 4.4 µM | 4.12 µM | 0.909 µM | 0.208 µM | 0.752 µM | 2.73 µM | > 10 µM | 3.5 µM | 0.651 µM | 2.57 µM |  | 
NS(=O)(=O)c1nnc(NC(=O)c2cccc([N+](=O)[O-])c2)s1 | > 100 | > 100 µM | > 100 µM | > 100 µM | > 100 µM | > 100 µM | > 100 µM | > 100 µM | > 100 µM | > 100 µM | > 100 µM | > 100 µM | > 100 µM | > 100 µM | > 100 µM | > 100 µM | > 100 µM |  | 
O=C(O)C1CCCCN1C(=O)Cc1c[nH]c2ccccc12 (stereo not drawn) | > 100 | > 100 µM | > 100 µM | > 100 µM | > 100 µM | > 100 µM | > 100 µM | > 100 µM | > 100 µM | > 100 µM | > 100 µM | > 100 µM | > 100 µM | > 100 µM | > 100 µM | > 100 µM |  |  | 
NC(=O)NNCc1c(-c2ccccc2)no[n+]1[O-] | > 100 | > 100 µM | > 100 µM | > 100 µM | > 100 µM | > 100 µM | > 100 µM | > 100 µM | > 100 µM | > 100 µM | > 100 µM | > 100 µM | > 100 µM | > 100 µM | > 100 µM | > 100 µM | > 100 µM |  | 
NC(N)=NS(=O)(=O)c1ccc(NNC(=O)c2cccc3c(=O)c4ccccc4[nH]c23)cc1 | 73.6 | 38.3 µM | 62.1 µM | 79.6 µM | 80.9 µM | 49.1 µM | 46.1 µM | 83.5 µM | 77.2 µM | > 100 µM | 58.7 µM | 63.7 µM | 65.9 µM | > 100 µM | 59.2 µM | 88.9 µM | 50.4 µM |  | 
Cc1cc(S(=O)(=O)Nc2n[nH]c(Nc3ccc4ccccc4c3)n2)c(S)cc1Cl | > 100 | > 100 µM | > 100 µM | > 100 µM | > 100 µM | > 100 µM | 84.2 µM | > 100 µM | > 100 µM | > 100 µM | 35.1 µM | 73.7 µM | > 100 µM | > 100 µM | > 100 µM | > 100 µM | > 100 µM |  | 
COc1cc(COC(=O)N2CC=CC2C(=O)O)c([N+](=O)[O-])cc1OC (stereo not drawn) | > 100 | > 100 µM | > 100 µM | > 100 µM | > 100 µM | > 100 µM |  |  | > 100 µM | > 100 µM | > 100 µM |  | > 100 µM | > 100 µM | > 100 µM | > 100 µM | > 100 µM |  | 
CCN(CC)c1ccc2cc(C(=O)NCc3ccccc3)c(=N)oc2c1 | > 100 | > 100 µM | > 100 µM | > 100 µM | > 100 µM | > 100 µM | 97.3 µM | > 100 µM | > 100 µM | > 100 µM | > 100 µM | > 100 µM | > 100 µM | > 100 µM | > 28.6 µM | > 100 µM | 97.3 µM |  | 
COc1cc(C2SCC(=O)N2c2ccc(NC(C)=O)cc2)cc(OC)c1OC (stereo not drawn) | > 100 | > 100 µM | > 100 µM | > 100 µM | > 100 µM | > 100 µM | > 100 µM | > 100 µM |  | > 100 µM | > 100 µM | > 100 µM | > 100 µM | > 100 µM | > 100 µM | > 100 µM | > 100 µM |  | 
CCN(CC)C(=S)SC1C(=O)NC(=O)NC1=O | > 100 | > 100 µM | > 100 µM | > 100 µM | > 100 µM | 12.7 µM | > 100 µM | > 100 µM | > 100 µM | > 100 µM | > 100 µM | > 100 µM | > 100 µM |  | > 100 µM | > 100 µM | > 100 µM |  | 
CN1N=C(c2ccccc2)C(C(c2ccccc2[N+](=O)[O-])C2C(=O)N(C)N=C2c2ccccc2)C1=O (stereo not drawn) | > 100 | > 100 µM | 52 µM | > 100 µM | 72.7 µM | > 100 µM | > 100 µM | > 100 µM | > 100 µM | > 100 µM | > 100 µM | > 100 µM | > 100 µM | > 100 µM | > 100 µM | > 100 µM | > 100 µM |  | 
CN=C(N)N=Nc1c(O)[nH]c2ccccc12 | > 100 | > 100 µM | > 100 µM | > 100 µM | > 100 µM | > 100 µM | > 100 µM | > 100 µM | > 100 µM | > 100 µM |  | > 100 µM | > 100 µM | > 100 µM | > 100 µM | > 100 µM | > 100 µM |  | 
c1ccc(-c2c3c(nc4c2CC[C@H]4NC2=NCCN2)[C@@H](NC2=NCCN2)CC3)cc1 | > 100 | > 100 µM | > 100 µM | > 100 µM | > 100 µM | > 100 µM | > 100 µM | > 100 µM | > 100 µM | > 100 µM | > 100 µM | > 100 µM | > 100 µM |  | > 100 µM | > 100 µM | > 100 µM |  | 
CC1OC(OC2C(OC(=O)[C@]34CCC(C)(C)C[C@H]3C3=CC[C@@H]5[C@@]6(C)CC[C@H](OC7OC(CO)C(O)C(O)C7OC7OC(CO)C(O)C(O)C7O)C(C)(C)[C@@H]6CC[C@@]5(C)[C@]3(C)CC4)OCC(O)C2O)C(O)C(O)C1OC1OCC(O)C(OC2OCC(O)C(O)C2O)C1O (stereo partly drawn) | 10.8 | 3.75 µM and 3.4 µM | 4.15 µM and 7.43 µM | 5.81 µM and 4.97 µM | 22.4 µM and 26.6 µM | 31.9 µM and 40.5 µM | 7.68 µM and 6.53 µM | 19.2 µM and 21.6 µM | 20.5 µM and 24.7 µM | 38.7 µM and 20.5 µM | 42.7 µM and > 100 µM | 8.07 µM and 8.23 µM | 3.9 µM and 3.82 µM | 20.8 µM and 20.5 µM | 21.8 µM and 16.6 µM | 6.58 µM and 4.71 µM | 4.14 µM and 3.85 µM | 1 µM and 2.72 µM | 2.87 µM and 9.41 µM
